Measured values: patent EP4635500A1, “THERAPEUTIC AGENT FOR BACTERIAL INFECTION” (Sumitomo Pharma Co., Ltd., priority 2022, dated 2024)
Converted amounts (≈) assume the structure as drawn. Like-named read-outs stand apart in the source and are kept apart here.

Tests used:
A. baumannii = experiment: MIC, broth microdilution, CDC/FDA Antibiotic Resistance Isolate Bank (Example 7, Tables 9, 13, 14); type: cell-based, Acinetobacter baumannii; details: for MIC: read-out: MIC
P. aeruginosa = experiment: MIC, broth microdilution, CDC/FDA Antibiotic Resistance Isolate Bank (Example 7, Tables 10, 15); type: cell-based; details: for MIC: Pseudomonas aeruginosa, read-out: MIC
[1] = 26 metallo-carbapenemase-producing P. aeruginosa strains, β-lactamase inhibitor µg/mL in parentheses
[2] = 96 strains of P. aeruginosa, β-lactamase inhibitor µg/mL in parentheses

SMILES: CO/N=C(\C(=O)N[C@@H]1C(=O)N2C(C(=O)[O-])=C(C[n+]3ccn4ncccc43)CS[C@H]12)c1nsc(N)n1 [Cefozopran, cefozopran]
- MIC (A. baumannii; Acinetobacter baumannii, A. baumannii KUB No. 5567, AR Bank #70, OXA-58, OXA-100): 2 µg/mL (≈ 3.88 µM)
- MIC (A. baumannii; Acinetobacter baumannii, A. baumannii KUB No. 5575, AR Bank #78, OXA-71): > 64 µg/mL
- MIC (A. baumannii; Acinetobacter baumannii, A. baumannii KUB No. 5580, AR Bank #83, OXA-23, OXA-69, NDM-1): > 64 µg/mL
- MIC (A. baumannii; Acinetobacter baumannii, A. baumannii KUB No. 5585, AR Bank #88, OXA-64, NDM-1): > 64 µg/mL
- MIC (A. baumannii; Acinetobacter baumannii, A. baumannii KUB No. 5598, AR Bank #101, OXA-24, OXA-65): 32 µg/mL (≈ 62.1 µM)
- MIC (A. baumannii; Acinetobacter baumannii, A. baumannii KUB No. 5599, AR Bank #102, OXA-66): 8 µg/mL (≈ 15.5 µM)
- MIC (A. baumannii; Acinetobacter baumannii, A. baumannii KUB No. 5706, AR Bank #273, OXA-23, OXA-66): 64 µg/mL (≈ 124 µM)
- MIC (A. baumannii; Acinetobacter baumannii, A. baumannii KUB No. 5707, AR Bank #274, OXA-66, OXA-72): 16 µg/mL (≈ 31 µM)
- MIC (A. baumannii; Acinetobacter baumannii, A. baumannii KUB No. 5708, AR Bank #275, OXA-23, OXA-66): 64 µg/mL (≈ 124 µM)
- MIC (A. baumannii; Acinetobacter baumannii, A. baumannii KUB No. 5709, AR Bank #276, no carbapenemase genes (-)): > 64 µg/mL
- MIC (A. baumannii; Acinetobacter baumannii, A. baumannii KUB No. 5710, AR Bank #277, OXA-24, OXA-65): 64 µg/mL (≈ 124 µM)
- MIC (A. baumannii; Acinetobacter baumannii, A. baumannii KUB No. 5711, AR Bank #278, OXA-23, OXA-66): 64 µg/mL (≈ 124 µM)
- MIC (A. baumannii; Acinetobacter baumannii, A. baumannii KUB No. 5712, AR Bank #279, OXA-23, OXA-66): 64 µg/mL (≈ 124 µM)
- MIC (A. baumannii; Acinetobacter baumannii, A. baumannii KUB No. 5713, AR Bank #280, OXA-66): 8 µg/mL (≈ 15.5 µM)
- MIC (A. baumannii; Acinetobacter baumannii, A. baumannii KUB No. 5714, AR Bank #281, OXA-82): 8 µg/mL (≈ 15.5 µM)
- MIC (A. baumannii; Acinetobacter baumannii, A. baumannii KUB No. 5715, AR Bank #282, OXA-23, OXA-66): 64 µg/mL (≈ 124 µM)
- MIC (A. baumannii; Acinetobacter baumannii, A. baumannii KUB No. 5716, AR Bank #283, OXA-23, OXA-66): 32 µg/mL (≈ 62.1 µM)
- MIC (A. baumannii; Acinetobacter baumannii, A. baumannii KUB No. 5717, AR Bank #284, OXA-24, OXA-65): 16 µg/mL (≈ 31 µM)
- MIC (A. baumannii; Acinetobacter baumannii, A. baumannii KUB No. 5718, AR Bank #285, OXA-24, OXA-65): 32 µg/mL (≈ 62.1 µM)
- MIC (A. baumannii; Acinetobacter baumannii, KUB No. 5719, AR Bank #286): 32 µg/mL (≈ 62.1 µM)
- MIC (A. baumannii; Acinetobacter baumannii, KUB No. 5720, AR Bank #287): 32 µg/mL (≈ 62.1 µM)
- MIC (A. baumannii; Acinetobacter baumannii, KUB No. 5721, AR Bank #288): 64 µg/mL (≈ 124 µM)
- MIC (A. baumannii; Acinetobacter baumannii, KUB No. 5722, AR Bank #259): 8 µg/mL (≈ 15.5 µM)
- MIC (A. baumannii; Acinetobacter baumannii, KUB No. 5723, AR Bank #290): > 64 µg/mL
- MIC (A. baumannii; Acinetobacter baumannii, KUB No. 5724, AR Bank #291): 32 µg/mL (≈ 62.1 µM)
- MIC (A. baumannii; Acinetobacter baumannii, KUB No. 5725, AR Bank #292): 16 µg/mL (≈ 31 µM)
- MIC (A. baumannii; Acinetobacter baumannii, KUB No. 5726, AR Bank #293): 16 µg/mL (≈ 31 µM)
- MIC (A. baumannii; Acinetobacter baumannii, KUB No. 5727, AR Bank #294): > 64 µg/mL
- MIC (A. baumannii; Acinetobacter baumannii, KUB No. 5728, AR Bank #295): 64 µg/mL (≈ 124 µM)
- MIC (A. baumannii; Acinetobacter baumannii, KUB No. 5729, AR Bank #296): > 64 µg/mL
- MIC (A. baumannii; Acinetobacter baumannii, KUB No. 5730, AR Bank #297): 64 µg/mL (≈ 124 µM)
- MIC (A. baumannii; Acinetobacter baumannii, KUB No. 5731, AR Bank #298): 16 µg/mL (≈ 31 µM)
- MIC (A. baumannii; Acinetobacter baumannii, KUB No. 5732, AR Bank #299): > 64 µg/mL
- MIC (A. baumannii; Acinetobacter baumannii, KUB No. 5733, AR Bank #300): 8 µg/mL (≈ 15.5 µM)
- MIC (A. baumannii; Acinetobacter baumannii, KUB No. 5734, AR Bank #301): > 64 µg/mL
- MIC (A. baumannii; Acinetobacter baumannii, KUB No. 5735, AR Bank #302): > 64 µg/mL
- MIC (A. baumannii; Acinetobacter baumannii, KUB No. 5736, AR Bank #303): 32 µg/mL (≈ 62.1 µM)
- MIC (A. baumannii; Acinetobacter baumannii, KUB No. 5737, AR Bank #304): 8 µg/mL (≈ 15.5 µM)
- MIC (A. baumannii; Acinetobacter baumannii, KUB No. 5738, AR Bank #305): 16 µg/mL (≈ 31 µM)
- MIC (A. baumannii; Acinetobacter baumannii, KUB No. 5739, AR Bank #306): 64 µg/mL (≈ 124 µM)
- MIC (A. baumannii; Acinetobacter baumannii, KUB No. 5740, AR Bank #307): 16 µg/mL (≈ 31 µM)
- MIC (A. baumannii; Acinetobacter baumannii, KUB No. 5741, AR Bank #308): 4 µg/mL (≈ 7.76 µM)
- MIC (A. baumannii; Acinetobacter baumannii, KUB No. 5742, AR Bank #309): 64 µg/mL (≈ 124 µM)
- MIC (A. baumannii; Acinetobacter baumannii, KUB No. 5743, AR Bank #310): 64 µg/mL (≈ 124 µM)
- MIC (A. baumannii; Acinetobacter baumannii, KUB No. 5744, AR Bank #311): > 64 µg/mL
- MIC (A. baumannii; Acinetobacter baumannii, KUB No. 5745, AR Bank #312): 16 µg/mL (≈ 31 µM)
- MIC (A. baumannii; Acinetobacter baumannii, KUB No. 5746, AR Bank #313): 64 µg/mL (≈ 124 µM)
- MIC50 (A. baumannii; Acinetobacter baumannii, 55 isolates of A. baumannii, read-out: MIC50): 64 µg/mL (≈ 124 µM)
- MIC80 (A. baumannii; Acinetobacter baumannii, 55 isolates of A. baumannii, read-out: MIC80): > 64 µg/mL
- MIC90 (A. baumannii; Acinetobacter baumannii, 55 isolates of A. baumannii, read-out: MIC90): > 64 µg/mL
- Number of isolates at MIC >64 µg/mL (A. baumannii; MIC distribution, metallo-β-lactamase-producing A. baumannii, inhibitor µg/mL in parentheses): 4
- MIC against 26 metallo-carbapenemase-producing strains MIC50 (P. aeruginosa; [1]): >64 µg(mL)
- MIC against 26 metallo-carbapenemase-producing strains MIC90 (P. aeruginosa; [1]): >64 µg(mL)
- MIC against 26 metallo-carbapenemase-producing strains MICrange (P. aeruginosa; [1]): >64 µg(mL)
- MIC against 96 strains of P. aeruginosa MIC50 (P. aeruginosa; [2]): 32 µg(mL)
- MIC against 96 strains of P. aeruginosa MIC90 (P. aeruginosa; [2]): >64 µg(mL)
- MIC (P. aeruginosa; P. aeruginosa KUB No. 579, AR Bank # 447): 0.5 µg/mL (≈ 0.97 µM)
- MIC (P. aeruginosa; P. aeruginosa KUB No. 5083, AR Bank # 250): > 64 µg/mL
- MIC (P. aeruginosa; P. aeruginosa KUB No. 5551, AR Bank # 54): > 64 µg/mL
- MIC (P. aeruginosa; P. aeruginosa KUB No. 5561, AR Bank # 64): > 64 µg/mL
- MIC (P. aeruginosa; P. aeruginosa KUB No. 5587, AR Bank # 90): > 64 µg/mL
- MIC (P. aeruginosa; P. aeruginosa KUB No. 5589, AR Bank # 92): > 64 µg/mL
- MIC (P. aeruginosa; P. aeruginosa KUB No. 5591, AR Bank # 94): 64 µg/mL (≈ 124 µM)
- MIC (P. aeruginosa; P. aeruginosa KUB No. 5592, AR Bank # 95): 1 µg/mL (≈ 1.94 µM)
- MIC (P. aeruginosa; P. aeruginosa KUB No. 5597, AR Bank # 100): > 64 µg/mL
- MIC (P. aeruginosa; P. aeruginosa KUB No. 5600, AR Bank # 103): > 64 µg/mL
- MIC (P. aeruginosa; P. aeruginosa KUB No. 5602, AR Bank # 105): 16 µg/mL (≈ 31 µM)
- MIC (P. aeruginosa; P. aeruginosa KUB No. 5605, AR Bank # 108): > 64 µg/mL
- MIC (P. aeruginosa; P. aeruginosa KUB No. 5607, AR Bank # 110): > 64 µg/mL
- MIC (P. aeruginosa; P. aeruginosa KUB No. 5608, AR Bank # 111): > 64 µg/mL
- MIC (P. aeruginosa; P. aeruginosa KUB No. 5662, AR Bank # 229): 16 µg/mL (≈ 31 µM)
- MIC (P. aeruginosa; P. aeruginosa KUB No. 5663, AR Bank # 230): > 64 µg/mL
- MIC (P. aeruginosa; P. aeruginosa KUB No. 5664, AR Bank # 231): > 64 µg/mL
- MIC (P. aeruginosa; P. aeruginosa KUB No. 5665, AR Bank # 232): 4 µg/mL (≈ 7.76 µM)
- MIC (P. aeruginosa; P. aeruginosa KUB No. 5666, AR Bank # 23): 2 µg/mL (≈ 3.88 µM)
- MIC (P. aeruginosa; P. aeruginosa KUB No. 5667, AR Bank # 234): 2 µg/mL (≈ 3.88 µM)
- MIC (P. aeruginosa; P. aeruginosa KUB No. 5668, AR Bank # 235): > 64 µg/mL
